Data taken from patent publication US11066709B2, “Methods for diagnosing and treating cancer by means of the expression status and mutational status of NRF2 and downstream target genes of said gene” (Genentech, Inc., priority 2016, dated 2021).
Each block holds one compound with its values, some of them ahead of it. Residues, ends and D or L forms follow the SMILES beside them. *: point of attachment. Cbz = O=C(OCc1ccccc1)*

Legend:
Assay type in all cases: cell-based
full-length NRF2 = assay: Effect of KEAP1 on NRF2 expression in transfected 293 cells (Western blot); conditions: 293 cells transfected with NRF2 and KEAP1 plasmids
Method: FIG. 23 is a set of immunoblots showing the effect of NRF2 exon 2 and exon 2+3 deletions on KEAP1 interaction. 293 cells were transfected with plasmids expressing FLAG-NRF2, Δe2 FLAG-NRF2, Δe2+3 FLAG-NRF2 or HA-KEAP1. 48 hours after transfection, cells were lysed, and either lysates (top gel) or anti-FLAG immunoprecipitations were analyzed by Western blotting using the indicated antibodies.
Plasmid DNAs were transfected into cells using Lipofectamine 2000 (ThermoFisher) and OptiMEM (Gibco) as recommended by manufacturer protocol. Lysates were prepared 2-3 days post transfection. Expression plasmids used were pRK5.NRF2, pRK5.NRF2δe2, pRK5.NRF2δe2,3, pRK5.NRF2.FLAG and pRK5.KEAP1.HA.

KEAP1 mutant cell lines = assay: Viability of KEAP1 wild-type versus KEAP1 mutant cell lines
Description: FIG. 56A is a graph showing the IC50 of the glutaminase inhibitor BPTES on KEAP1 wild-type cell lines versus KEAP1 mutant cell lines.
FIG. 56B is a graph showing the viability of KEAP1 wild-type cell lines versus KEAP1 mutant cell lines in response to the glutaminase inhibitor BPTES.
FIG. 57A is a graph showing the IC50 of the […] buthionine sylphoximine (BSO) on KEAP1 wild-type cell lines versus KEAP1 mutant cell lines.
FIG. 57B is a graph showing the viability of KEAP1 wild-type cell lines versus KEAP1 mutant cell lines in response to BSO.

A549 cells = assay: Colony growth of A549 cells in soft agar; conditions: Homo sapiens, read-out: IC50 for inhibiting colony growth of A549 cells in soft agar
Method: (§1) FIG. 62 is a series of photographs showing colony formation of KEAP1 mutant cell lines and KEAP1 wild-type cell lines grown in soft agar (anchorage independent conditions) in the presence of IGF1 R inhibitors linsitinib and NVP-AEW541, and in the presence or absence of glutathione.
(§2) Expression of IGF1 R was greater in KEAP1 mutant NSCLC cells relative to KEAP1 wild-type NSCLC cell lines. To test the effect of IGF1 R inhibition on KEAP1 mutant and KEAP1 wild-type cells, cell lines were treated with linsitinib, a potent and selective IGF1 R small molecule inhibitor. […] However, this compound was very potent at inhibiting colony growth of A549 cells in soft agar, having an IC50 of about 20 nM.

[1] = system: three wild-type and three mutant KEAP1 NSCLC cell lines; assay: Proliferation of wild-type and mutant KEAP1 NSCLC cell lines
[2] = system: KEAP1 mutant cell lines and KEAP1 wild-type cell lines; assay: Growth in soft agar (anchorage independent conditions) of a panel of NSCLC cell lines
Method: as §1, §2

[3] = system: reactive oxygen species (ROS); assay: ROS levels measured by H2DCF; conditions: exogenous glutathione, dichlorofluorescein staining
Description: FIG. 49 is bar graph showing reactive oxygen species (ROS) levels under indicated conditions as measured using 2′,7′-dichlorodihydrofluorescein diacetate (H2DCF). Error bars represent standard deviation from triplicate wells.
FIG. 53 is a histogram showing increasing ROS levels in response to shNRF2 and/or erastin, as measured by H2DCF.

[4] = system: KEAP1 mutant and KEAP1 wild-type cell lines; assay: Colony formation in soft agar with or without NRF2 knockdown
Method: Representative areas of the plate were photographed. FIG. 44 is a series of bar graphs showing the quantified colony formation for each cell type and treatment group shown in FIG. 43. Error bars represent standard deviation from biological triplicate wells. FIG. 48 is a series of photographs showing A549 cells expressing NRF2sh10 shRNA plated into regular tissue culture dishes (top) or soft agar (bottom). Cells were treated with either vehicle or 500 ng/ml doxycycline, in the presence or absence of 2 mM N-acetyl cysteine (NAC).

SMILES: CC(C)C[C@@H](C=O)NC(=O)[C@H](CC(C)C)NC(=O)[C@H](CC(C)C)NC(=O)OCc1ccccc1 [MG132] (Cbz-Leu-Leu-Leu-aldehyde)
inhibitory effect of KEAP1 on full-length NRF2 expression (full-length NRF2): mostly abolished

SMILES: CCCCS(=N)(=O)CCC(N)C(=O)O (stereo not drawn) [BSO, buthionine sylphoximine]
preferential toxicity for KEAP1 mutant cell lines (KEAP1 mutant cell lines): did not display preferential toxicity

SMILES: O=C(Cc1ccccc1)Nc1nnc(CCSCCc2nnc(NC(=O)Cc3ccccc3)s2)s1 [BPTES]
preferential toxicity for KEAP1 mutant cell lines (KEAP1 mutant cell lines): did not display preferential toxicity

IC50 (A549 cells): ~20 nM
SMILES: C[C@]1(O)C[C@@H](c2nc(-c3ccc4ccc(-c5ccccc5)nc4c3)c3c(N)nccn32)C1 [linsitinib]
effect on proliferation [1]: little effect on proliferation
selectivity of growth inhibition for KEAP1 mutant cell lines [2]: selective growth inhibition in soft agar of this compound in KEAP1 mutant cell lines

SMILES: N[C@@H](CCC(=O)N[C@@H](CS)C(=O)NCC(=O)O)C(=O)O [reduced glutathione, glutathione]
ROS levels [3]: reduce reactive oxygen (ROS) levels
ability to form colonies in soft agar ([4]; all tested cell lines, 1 mM reduced glutathione): generally increased the ability of all tested cell lines to form colonies in soft agar
rescue of the consequences of NRF2 knockdown ([4]; soft agar, dox-induced NRF2 shRNA): unable to rescue the consequences of NRF2 knockdown
